One may read the IC50 as the concentration needed to halve the response being measured.

In the assay the target is Hsp82 (Saccharomyces cerevisiae, UniProt P02829). The assay can be described thus: Hsp82 ATPase activity inhibition (malachite green inorganic phosphate method, or PK/LDH coupled method). It counts as biochemical. As for the experimental part:
The inorganic phosphate released during the hydrolysis of ATP by the ATPase activity of Hsp82 is quantified by the malachite green method. In the presence of this reagent, formation of the inorganic phosphate-molybdate-malachite green complex occurs, which complex absorbs at a wavelength of 620 nm.
The products to be evaluated are incubated in a reaction volume of 30 μl, in the presence of 1 μM Hsp82 and of 250 μM of substrate (ATP) in a buffer composed of 50 mM Hepes-NaOH (pH 7.5), 1 mM DTT, 5 mM MgCl2 and 50 mM KCl at 37° C. for 60 min. In parallel, a range of inorganic phosphate of between 1 and 40 μM is prepared in the same buffer. The ATPase activity is subsequently visualized by the addition of 60 μl of the biomol green reagent (Tebu). After incubation at ambient temperature for 20 min, the absorbance of the various wells is measured using a microplate reader at 620 nm. The concentration of inorganic phosphate of each sample is then calculated from the standard curve. The ATPase activity of Hsp82 is expressed as concentration of inorganic phosphate produced in 60 min. The effect of the various products tested is expressed as percentage inhibition of the ATPase activity.
The formation of ADP due to the ATPase activity of Hsp82 was used to develop another method for evaluating the enzymatic activity of this enzyme by application of an enzymatic coupling system involving pyruvate kinase (PK) and lactate dehydrogensase (LDH). In this kinetic-type spectrophotometric method, the PK catalyses the formation of ATP and of pyruvate from phosphoenol pyruvate (PEP) and from the ADP produced by Hsp82. The pyruvate formed, which is a substrate for LDH, is subsequently converted into lactate in the presence of NADH. In this case, the decrease in NADH concentration, measured by the decrease in absorbance at the wavelength of 340 nm, is proportional to the concentration of ADP produced by Hsp82.
The products tested are incubated in a reaction volume of 100 μl of buffer composed of 100 mM Hepes-NaOH (pH 7.5), 5 mM MgCl2, 1 mM DTT, 150 mM KCl, 0.3 mM NADH, 2.5 mM PEP and 250 μM ATP. This mixture is preincubated at 37° C. for 30 min before the addition of 3.77 units of LDH and 3.77 units of PK. The reaction is initiated by the addition of the product to be evaluated, at varying concentrations, and of Hsp82, at a concentration of 1 μM. The enzymatic activity of Hsp82 is then measured, continuously, in a microplate reader, at 37° C., at the wavelength of 340 nm. The initial rate of the reaction is obtained by measuring the slope of the tangent at the origin of the curve recorded. The enzymatic activity is expressed in μM of ADP formed per minute. The effect of the various products tested is expressed as percentage inhibition of the ATPase activity.

Setting [1] is: inhibition of ATPase activity of Hsp82, 1 μM Hsp82, 250 μM ATP, 37° C., read-out: IC50.

Like-named read-outs stand apart in the source and are kept apart here.

Sequence of Hsp82 (P02829 whole entry): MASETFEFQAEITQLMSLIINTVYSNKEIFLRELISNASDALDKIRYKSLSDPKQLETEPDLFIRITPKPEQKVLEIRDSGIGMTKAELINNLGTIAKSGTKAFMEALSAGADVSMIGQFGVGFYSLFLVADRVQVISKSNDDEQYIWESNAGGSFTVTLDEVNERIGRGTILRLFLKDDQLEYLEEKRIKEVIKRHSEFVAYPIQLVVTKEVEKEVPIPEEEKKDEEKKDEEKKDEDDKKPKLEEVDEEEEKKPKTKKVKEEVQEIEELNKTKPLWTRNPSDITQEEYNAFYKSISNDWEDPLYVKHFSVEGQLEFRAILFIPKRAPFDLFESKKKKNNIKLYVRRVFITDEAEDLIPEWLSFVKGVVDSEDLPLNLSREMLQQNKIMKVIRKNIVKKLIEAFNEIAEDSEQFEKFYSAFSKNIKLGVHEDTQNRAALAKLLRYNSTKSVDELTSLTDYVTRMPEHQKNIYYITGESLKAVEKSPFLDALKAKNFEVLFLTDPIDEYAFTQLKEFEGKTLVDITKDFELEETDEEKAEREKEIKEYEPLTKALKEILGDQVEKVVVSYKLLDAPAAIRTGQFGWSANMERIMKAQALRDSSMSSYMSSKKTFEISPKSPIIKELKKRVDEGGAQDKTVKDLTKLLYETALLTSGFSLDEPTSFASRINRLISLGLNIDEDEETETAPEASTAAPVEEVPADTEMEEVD

For the compound `CCc1cc(-c2noc3ccccc23)c(O)cc1O` [Example 6, 4-(1,2-Benzisoxazol-3-yl)-6-ethylbenzene-1,3-diol], the IC50 under setting [1] is 1 to 10 µM.

Turning to `Oc1cc(O)c(-c2noc3ccccc23)cc1CNc1ccc(Cl)c(Cl)c1` [Example 11, 4-(1,2-Benzisoxazol-3-yl)-6-(3,4-dichlorophenylamino)methylbenzene-1,3-diol], the IC50 under setting [1] fell in the range of 1 to 10 µM.

As to `COc1cc(O)c(-c2noc3ccccc23)cc1CNc1ccc(C)c(C)c1` [Example 10, 2-(1,2-benzisoxazol-3-yl)-4-(3,4-dimethylphenylamino)methyl-5-methoxyphenol], the half-inhibitory concentration (IC50) under setting [1] was 10 to 100 µM. The same measure, in the same setting: under `O=C(Cc1ccccc1)c1cc(-c2noc3ccccc23)c(O)cc1O` [Example 5] stands 10 to 100 µM; under `Oc1cc(O)c(-c2noc3ccccc23)cc1CNc1ccccc1` [Example 8, 4-(1,2-Benzisoxazol-3-yl)-6-(phenylamino)methylbenzene-1,3-diol], 1 to 10 µM. Same read-out and setting: under `O=C(NCc1ccccc1)c1cc(-c2noc3ccccc23)c(O)cc1O` [Example 4, N1-Phenylmethyl-5-(1,2-benzisoxazol-3-yl)-2,4-dihydroxybenzenecarboxamide] stands 10 to 100 µM; under `Cc1ccc(NCc2cc(-c3noc4ccccc34)c(O)cc2O)cc1C` [Example 9, 4-(1,2-Benzisoxazol-3-yl)-6-(3,4-dimethylphenylamino)methylbenzene-1,3-diol], under 1 µM. On the same count and under the same terms, under `COC(=O)c1cc(-c2noc3ccccc23)c(O)cc1O` [Example 3, 5-(1,2-Benzisoxazol-3-yl)-2,4-dihydroxybenzenecarboxylic acid methyl ester] stands 10 to 100 µM. `Oc1cc(O)c(-c2noc3ccccc23)cc1CCc1ccccc1` [Example 7, 4-(1,2-Benzisoxazol-3-yl)-6-(2-phenylethyl)benzene-1,3-diol]: the half-inhibitory concentration (IC50) under setting [1] lay in the range of 1 to 10 µM.

Turning to `Oc1ccc(-c2noc3ccccc23)c(O)c1` [Example 1, 4-(1,2-Benzisoxazol-3-yl)benzene-1,3-diol], the IC50 fell in the range of 1 to 10 µM. As for `Oc1cc(O)c(-c2noc3ccccc23)cc1/C=N/c1ccc(Cl)c(Cl)c1` [Example 12, 4-(1,2-benzisoxazol-3-yl)-6-(3,4-dichlorophenyl)iminomethylbenzene-1,3-diol], the IC50 under setting [1] was in the range of 1 to 10 µM.

In the case of `Oc1cc(O)c(-c2noc3ccccc23)cc1Br` [Example 2, 4-(1,2-Benzisoxazol-3-yl)-6-bromobenzene-1,3-diol], the half-maximal inhibitory concentration (IC50) under setting [1] was 1 to 10 µM.
